Laboratory results: patent publication US20240415808A1, “Dosage Regimen for Fexuprazan Injection Composition” (Daewoong Pharmaceutical Co., Ltd., priority 2021, published 2024)
Where “and” joins values, the source holds several entries; their conditions need not be identical. Equal entries are not always repeated.

What was measured:
[1] = tested on: acidity in the gastrointestinal tract; test: injection maintenance therapy test, acidity in the gastrointestinal tract; type: in vivo, human; details: healthy adults; for Fraction time pH ≥ 6 over 24 hours post-dose (duration %): 40 mg IV over 30 minutes then 4 mg/hr for 71.5 hours; for Fraction time pH ≥ 4 over 24 hours post-dose (duration %) / Mean pH / Median pH: 40 mg IV then 4 mg/hr for 71.5 hours
Method: In order to confirm changes in PD values according to fexuprazan injection maintenance therapy, the test was conducted on eight healthy adults between the ages of 19 and 50. To the test subjects, a total of 100 ml of a solution obtained by mixing 40 mg of a freeze-dried preparation (40 mg/vial) prepared in the same manner as that used in Experimental Example 6, and physiological saline was administered intravenously for 30 minutes. Subsequently, on the first day, a total of 1 L of a solution obtained by mixing 94 mg of freeze-dried formulation (40 mg/vial) and physiological saline was administered intravenously as a maintenance dose for 23.5 hours. On the second and third days, a total of 1 L of a solution obtained by mixing 96 mg of freeze-dried formulation (40 mg/vial) and physiological saline was administered intravenously for 24 hours. That is, as a maintenance dose, a total of 3 L of a solution of 286 mg of lyophilized formulation (40 mg/vial) mixed with physiological saline was administered intravenously for 71.5 hours at a rate of 4 mg/hr. The acidity in the gastrointestinal tract was tested on the first and third days, respectively, and the results are shown in Table 14 and FIG. 15 below.

[2] = tested on: acidity (pH) in the gastrointestinal tract; test: multiple intravenous administration clinical trial (7 days), acidity (pH) in the gastrointestinal tract; type: in vivo, human; details: healthy adults; for Fraction time pH ≥ 4 over 24 hours post-dose (duration %) / Mean pH / Median pH: 7th day
Method: Subsequent to Experimental Example 4, in order to confirm the change in PD value during multiple administration of the compound of the present invention, the clinical trial was designed to be randomized, double-blind, placebo-controlled in healthy adults between the ages of 19 and 50.
A stabilizer (200 mg), a freeze-drying auxiliary agent (200 mg), and the previously prepared fexuprazan hydrochloride (40 mg based on fexuprazan weight) were dissolved in water for injection (4 mL), and the pH was adjusted to 4.0 by adding an appropriate amount of acid. The prepared solution was put into a vial and dried using a freeze-drying method to prepare a freeze-dried agent.
The freeze-dried composition prepared as above was used, but a total of 28 subject of […], 8, and 8 subjects each were enrolled for three dose groups (20 mg, 40 mg, and 80 mg) based on fexuprazan weight, and each group was randomly assigned to test or control groups in the order that they passed the screening criteria at a ratio of 3:1.
Dose groups 1 and 3 in Table 12 were administered once a day (every 24 hours) (FIG. 8), and dose group 2 was administered twice a day (every 12 hours) for 7 days (FIG. 9).
The acidity (pH) tests in the gastrointestinal tract were performed for 48 hours from the day before administration to 24 hours after the first administration. On the 7th day, it was administered for 24 hours after administration. The measured results are shown in Table 13 and FIGS. 10 to 14 below.

[3] = 4-week repeated intravenous toxicity test, rat; type: in vivo
Method: The previously prepared fexuprazan hydrochloride was dissolved in a solution containing 30 wt. % of polyethylene glycol (Polyethylene Glycol 400) polymer in physiological saline, and the concentration was calculated based on fexuprazan weight so that it could be administered at a liquid volume of 5 mL/kg for rats and 2 mL/kg for beagle dogs to prepare each composition. Toxicity was evaluated by intravenously administering at doses of 0, 2.5, 5, and 10 mg/kg/day to rats and beagle dogs, respectively, once a day for 4 weeks.

Which results are given for `CNCc1cn(S(=O)(=O)c2cccc(F)c2)c(-c2ccc(F)cc2F)c1OC` [Fexuprazan, 1-(5-(2,4-difluorophenyl)-1-((3-fluorophenyl)sulfonyl)-4-methoxy-1H-pyrrol-3-yl)-N-methylmethanamine]?
Fraction time pH ≥ 6 over 24 hours post-dose (duration %) ([1]; Day 1): 65.40 ± 18.67%; Fraction time pH ≥ 6 over 24 hours post-dose (duration %) ([1]; Day 3): 76.33 (±15.98) % and 76.33 ± 15.98%; Fraction time pH ≥ 4 over 24 hours post-dose (duration %) ([1]; Day 1): 97.87 ± 1.43%; Mean pH ([1]; Day 1): 6.17 ± 0.36; Median pH ([1]; Day 1): 6.28 ± 0.32; Fraction time pH ≥ 4 over 24 hours post-dose (duration %) ([1]; Day 3): 99.85 ± 0.40%; Mean pH ([1]; Day 3): 6.39 ± 0.35; Median pH ([1]; Day 3): 6.44 ± 0.28; Fraction time pH ≥ 4 over 24 hours post-dose (duration %) ([2]; 20 mg IV q24h): 55.68 (±14.85) % and 55.68 ± 14.85%; Mean pH ([2]; 20 mg IV q24h): 4.28 ± 0.7; Median pH ([2]; 20 mg IV q24h): 4.29 ± 1.32; Fraction time pH ≥ 6 over 24 hours post-dose (duration %) ([2]; 20 mg IV q24h, 7th day (n = 6)): 25.29 ± 15.41%; Fraction time pH ≥ 4 over 24 hours post-dose (duration %) ([2]; 40 mg IV q12h): 99.85 ± 0.31%; Mean pH ([2]; 40 mg IV q12h): 6.34 ± 0.23; Median pH ([2]; 40 mg IV q12h): 6.33 ± 0.22; Fraction time pH ≥ 6 over 24 hours post-dose (duration %) ([2]; 40 mg IV q12h, 7th day (n = 5)): 74.77 (±13.39) % and 74.77 ± 13.39%; Fraction time pH ≥ 4 over 24 hours post-dose (duration %) ([2]; 80 mg IV q24h): 94.78 ± 8.49%; Mean pH ([2]; 80 mg IV q24h): 6.08 ± 0.5; Median pH ([2]; 80 mg IV q24h): 6.28 ± 0.27; Fraction time pH ≥ 6 over 24 hours post-dose (duration %) ([2]; 80 mg IV q24h, 7th day (n = 6)): 70.07% and 70.07 ± 18.09%; Result: harmless dose ([3]; Rat, 4 weeks, intravenous, doses 0, 2.5, 5, 10): harmless dose 10 mg/kg; toxic symptoms due to the test substance ([3]; rats, 2.5, 5, 10 mg/kg/day intravenous, 4 weeks): no toxic symptoms due to the test substance were observed in all administration groups; harmless dose ([3]; rats, intravenous once a day for 4 weeks): 10 mg/kg/day
